Data on three compounds can be found in US20110160303A1, “N-ALKYLCARBONYL-AMINO ACID ESTER AND N-ALKYLCARBONYL-AMINO LACTONE COMPOUNDS AND THEIR USE” (Edward Tak WEI, priority 2005, published 2011).

The subject of one data set is asthma. Briefly: Study 10: adult-onset asthma, throat irritation and cough. It counts as in vivo, human. Here is the method:
A person had adult-onset asthma for 20 years. Triggers for attacks were tobacco smoke, dust, and changes in air temperature. They used Foradil® (formoterol fumarate) and Asmanex® (mometasone fuorate) twice a day to control their asthma, and monitored their pulmonary function with a portable device for measuring peak expiratory flow. They had daily episodes of both productive and non-productive cough. In 5 trials, when they felt throat irritation and a desire to cough, placement of 1 to 3 mg of (R)-2-[((1R,2S,5R)-2-isopropyl-5-methyl-cyclohexanecarbonyl)-amino]-propionic acid ethyl ester) provided rapid relief and was described as soothing and removed “tightness” in the chest. Peak expiratory flow improved from 320 L/min to 370 L/min. In 3 episodes where the test substance was administered in the midst of a productive cough spell, no significant effects were observed and the subject said that the applied compound had been expectorated. The subjective response to the long-acting NACE compound was definitely favourable. The subject remarked that the best time to use the NACE compound was after inhaling the crystalline Foradil® because this inhaled drug irritated their throat. Menthol lozenges were not effective for their airway discomfort because they only had mild anti-irritant actions and the sugar content of the lozenges interfered with their appetite for food.

A further data set deals with oral cavity. The data set is described as follows: Oral cavity test, substance placed on dorsal surface of the tongue. It counts as in vivo, human. The note with it: dose of 1 to 2 mg, normal subjects. Here is the method:
The subject is instructed to close and hold the substance in the mouth for at least 10 seconds and not to swallow. The description of sensations is then recorded at 5 minute intervals.
The compounds of Formula (1) and (2) are white crystalline solids at room temperatures. These compounds were tested as such, or mixed 1:1 with powdered or granulated sugar. The test substances were applied at 1 to 5 mg on the mid-point of the dorsal surface of the tongue using a metal spatula or a plastic applicator. After depositing the test substance on the tongue, the subject was instructed to keep the mouth closed and allow the fluids of the mouth to inter-mix with the test substance and to distribute it to the back of the mouth (oropharynx). The presence and duration of subjective sensations from the mouth was then noted.
In normal subjects, the effects of the D-Ala methyl and ethyl ester compounds falling within Formula (1) ((R)-2-[((1R,2S,5R)-2-isopropyl-5-methyl-cyclohexanecarbonyl)-amino]-propionic acid methyl or ethyl ester)) were examined. Three doses of 1, 2 and 4 mg per application were examined and compared to a similar dose of the L-Ala methyl or ester analog ((S)-2-[((1R,2S,5R)-2-isopropyl-5-methyl-cyclohexanecarbonyl)-amino]-propionic acid methyl or ethyl ester). At the 2 or 4 mg dose, all compounds produced pleasant and robust cooling sensations on the tongue, extending down to the back of throat, and lasted for about 30 minutes and longer. The onset effect was usually within 30 seconds of application.

In the next data set the test system is face. The data set is described as follows: Study 3: towelette used to wipe the face. It is filed as in vivo, human. The procedure:
2-Isopropyl-5-methyl-cyclohexanecarbonyl D-alanine methyl ester was dissolved in warm 10% propylene-glycol/90% distilled water solution to give a concentration of either 0.1 or 0.5% wt/vol (1 or 5 mg/mL). Six to seven milliliters of these solutions were then applied with a pipette onto a paper napkin (Luncheon Napkins, Kirkland Signature brand from Costco, Inc.) The napkin was 1-ply with a 30.4×29.5 cm dimension. Each napkin was then hermetically sealed in a plastic envelope (Foodsaver by Tilia). On two separate occasions involving golfing trips to Los Angeles, Calif., USA, where air temperatures exceeded […] (90° F.), these towelettes were used to wipe the face. Pleasant cooling sensations were obtained that lasted for about 10 minute for the 0.1% concentration towelette and about 60 minutes for the 0.5% towelette.

A further data set concerns periorbital area. Briefly: Study 4: 1% ointment applied bilaterally to the periorbital area. It is filed as in vivo, human. The source says:
A 1% preparation of 2-isopropyl-5-methyl-cyclohexanecarbonyl D-alanine methyl ester in Aquaphor® ointment was applied bilaterally to the periorbital area of four individuals. […] This alerting effect lasted for about one hour. This experiment was then repeated three days later in the evening with the same individuals whose occupations required daylong activities before a computer screen. Again, application of the ointment about the periorbital area was reported to relieve fatigue, enhance visual acuity, and to increase attention span and focus. Sensations of refreshment and improved mood were also noted.

For data set [1], the system named is irritated skin (acneiform dermatitis treated with Tazorac). The data set is described as follows: Study 5: ointment on skin irritated by Tazorac. It is filed as in vivo, human. The settings on record: 1.5% in Aquaphor. Here is the method: A person was treated with Tazorac® (tazarotene topical gel) for acneiform dermatitis on their cheeks. After using these medications for several days, they noted redness, itching, and uncomfortable burning sensations on the skin where these medications had been placed. A 1.5% preparation of 2-isopropyl-5-methyl-cyclohexanecarbonyl α-alanine methyl ester in Aquaphor® ointment was then applied to the sites of irritation. Sensations of coolness on the skin were noted within 5 minutes and lasting for an average of 30 minutes. The discomfort of the irritated skin was abated within five minutes and the subject felt better.

A further data set deals with skin above the upper lip. The data set is described as follows: Cooling sensation on facial skin, ointment applied to skin above the upper lip. It is filed as in vivo, human. Also noted: key to refreshing cooling and absence of skin irritation or eye irritation (“perfect cool”): (*) denotes compounds with refreshing cooling and absence of skin irritation or eye irritation after facial skin or periorbital applications; a “perfect cool.”. The settings on record: for Duration of Action On-Off (minutes): On (onset): 40 mM (~1% wt/vol) Aquaphor ointment, 40 to 70 mg, time to reach 2 units of coolness; for Duration of Action On-Off (minutes): duration (offset minus onset) / Duration of Action On-Off (minutes): Off (offset): 40 mM Aquaphor ointment; for Duration of Action On-Off (minutes): Off (offset): time when coolness drops below 2 units. The source says: A reliable place for topical application is the skin above the upper lip (above the vermilion border of the lips), on the philtrum, lateral to the philtrum until the nasolabial folds, and on the lower nostrils (subnasale). This part of the face is known to be densely innervated with cold receptors, second only to the surfaces of the eyeball and anogenitalia. A second location is on or below the malar eminence (cheekbone). The skin above the cheekbone is thicker than above the lips, and therefore has a higher threshold for activation. At both loci, tingling, cool and cold sensations in the skin may be experienced and rated for time of onset and intensity.
The intensity of the subjective skin sensation is rated as 0, 1, 2 or 3 with: 0 as no change; 1 as slight coolness, cold, or tingling; 2 as clear-cut signal of coolness, cold, or tingling; and 3 as robust cooling or cold. The intervals for recording sensations are 5 to 10 minutes, until two successive zeroes are obtained. The results (shown in FIGS. 1 and 2) are averaged values of 4 to 6 separate trials in the same individual. The data are plotted using SigmaPlot® (Systat Software, Point Richmond Calif.) and a smoothing function with a negative exponential was used for analysis and statistical fit of the results. Confirmatory trials of cooling action of the long-acting NACE compounds were obtained in 2 to 4 individuals but not quantified for some because of the large number of chemicals that were evaluated.
The onset of drug action is taken as the time to reach 2 units of coolness intensity, and offset of drug action is the time when coolness intensity drops below 2, after previously surpassing 2 units. The duration of cooling action is defined as the offset time minus the onset time. […] The quality of the sensation is noted, for example, as pure refreshing coolness, or if the sensation is accompanied by irritation (stinging or burning). The quality of the sensation is not rated for intensity.
For bioassay on the skin, approximately 30 mg was stirred and dissolved in 3 g of warm liquid Aquaphor® ointment to a yield a 40 mM (˜1% wt/vol) ointment. The exact amount was adjusted so that the molar equivalent was about 35 to 40 mM. After cooling, 40 to 70 mg of the solid ointment was placed on the tip of a plastic stick and applied to the skin above the upper lip, on the philtrum, and lateral to the philtrum, up to the nasolabial folds, of test subjects and the onset and duration of cooling sensations noted.
The intensity of the subjective skin sensation was rated as 0, 1, 2 or 3 with: 0 as no change; 1 as slight coolness, cold, or tingling; 2 as clear signal of coolness, cold, or tingling; and 3 as robust cooling or cold. The intervals for recording sensations were 5 to 10 minutes, until two successive zeroes were obtained. The results (shown in FIGS. 1 and 2) are averaged values of 4 to 6 separate trials in the same individual. The data are plotted using SigmaPlot® (Systat Software, Point Richmond, Calif., USA) and a smoothing function with a negative exponential was used for analysis and statistical fit of the results.
The onset of drug action was taken as the time to reach 2 units of coolness intensity, and offset of drug action was the time when coolness intensity drops below 2, after previously surpassing 2 units. The duration of cooling action was defined as the offset time minus the onset time. […] The quality of the sensation was also noted: such as pure refreshing coolness, or if the sensation was accompanied by irritation (stinging or burning). The quality of the sensation was not rated for intensity.
Test compounds were singly applied to the skin above the upper lips at a 40 to 70 mg dose of a 1% wt/vol ointment.

The nature of data set [2]: Octanol/water partition coefficient. It is filed as physicochemical. Here is the method: The octanol/water partition coefficients (given in log P units) for a number of compounds were determined and are shown in Table 7, together with the threshold for cooling on the tongue tested at 40 mM. […] A longer duration of action was not precisely matched with log P values.

The subject of a further data set is tongue. The data set is described as follows: Threshold for cooling on the tongue. It is filed as in vivo, human. The settings on record: threshold for cooling on the tongue. The procedure:
Watson et al. (U.S. Pat. No. 4,178,459) tested the properties of N-substituted p-menthane carboxamides on volunteers by putting filter paper (1×1 cm), impregnated with a known amount of compound, onto the dorsal surface of the tongue of the test subject. After 30 seconds, the subject was required to report presence or absence of a cooling effect. […] The average threshold of (−)-menthol for 6 subjects was 0.25 μg, but there was a 100-fold variation in individual sensitivity. As noted above, coolness signals detected from the dorsal surface of the tongue may be confounded by gustatory, olfactory, and other variables, as well as by dilution from saliva. The octanol/water partition coefficients (given in log P units) for a number of compounds were determined and are shown in Table 7, together with the threshold for cooling on the tongue tested at 40 mM. […] A longer duration of action was not precisely matched with log P values.

Another data set concerns the target T1, TRP-M8 (Homo sapiens, UniProt Q7Z2W7).
T1 construct: expressed in transfected cells
The settings on record: cited from earlier work.

[3] abbreviates: 1% in Aquaphor, periorbital, four individuals.

SMILES strings stand for the structures. Entries after “also recorded” stand apart in the source; their conditions may differ.

T1 sequence (Q7Z2W7 whole entry, species assumed): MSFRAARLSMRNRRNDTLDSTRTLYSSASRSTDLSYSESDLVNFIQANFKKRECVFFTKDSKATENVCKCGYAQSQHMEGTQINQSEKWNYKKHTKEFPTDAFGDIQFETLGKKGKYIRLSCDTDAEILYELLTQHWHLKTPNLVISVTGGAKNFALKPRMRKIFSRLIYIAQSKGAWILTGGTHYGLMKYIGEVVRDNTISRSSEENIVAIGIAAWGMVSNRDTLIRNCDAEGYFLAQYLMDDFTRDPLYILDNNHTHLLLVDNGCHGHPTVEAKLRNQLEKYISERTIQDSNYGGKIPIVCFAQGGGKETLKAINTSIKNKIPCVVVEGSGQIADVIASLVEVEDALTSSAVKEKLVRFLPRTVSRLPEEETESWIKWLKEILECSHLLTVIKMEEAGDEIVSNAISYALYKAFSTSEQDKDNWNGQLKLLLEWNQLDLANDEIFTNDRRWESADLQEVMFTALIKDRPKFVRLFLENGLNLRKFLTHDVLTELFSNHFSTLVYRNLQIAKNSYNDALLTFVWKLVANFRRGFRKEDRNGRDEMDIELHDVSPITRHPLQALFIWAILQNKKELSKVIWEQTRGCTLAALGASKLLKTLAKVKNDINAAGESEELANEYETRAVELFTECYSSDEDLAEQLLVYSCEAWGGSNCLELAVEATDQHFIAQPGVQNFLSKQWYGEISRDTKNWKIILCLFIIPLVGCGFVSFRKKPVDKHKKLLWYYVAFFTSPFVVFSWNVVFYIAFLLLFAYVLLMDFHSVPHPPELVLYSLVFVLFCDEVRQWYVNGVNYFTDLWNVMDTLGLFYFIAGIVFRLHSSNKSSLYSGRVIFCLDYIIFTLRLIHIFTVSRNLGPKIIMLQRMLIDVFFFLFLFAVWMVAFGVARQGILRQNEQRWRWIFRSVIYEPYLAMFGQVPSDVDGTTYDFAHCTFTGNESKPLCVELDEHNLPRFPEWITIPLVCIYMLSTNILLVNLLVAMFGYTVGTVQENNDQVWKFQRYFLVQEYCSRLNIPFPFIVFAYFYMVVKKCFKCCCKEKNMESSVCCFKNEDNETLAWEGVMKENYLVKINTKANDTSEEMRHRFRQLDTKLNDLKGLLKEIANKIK

In turn, `CCOC(=O)[C@@H](C)NC(=O)[C@@H]1C[C@H](C)CC[C@H]1C(C)C` [(R)-2-[((1R,2S,5R)-2-isopropyl-5-methyl-cyclohexanecarbonyl)-amino]-propionic acid ethyl ester] yielded a Peak expiratory flow with asthma (1 to 3 mg, improved from 320 L/min) of 370 L/min. Further, the “relief of throat irritation, desire to cough and airway discomfort” value in the data set on asthma (asthmatic) is given as “rapid relief”.

For the compound `COC(=O)[C@@H](C)NC(=O)[C@@H]1C[C@H](C)CC[C@H]1C(C)C` [D-Ala Me Ester, (R)-2-[((1R,2S,5R)-2-isopropyl-5-methyl-cyclohexanecarbonyl)-amino]-propionic acid methyl ester], the “duration of cooling sensations on the tongue” value with oral cavity is listed as “about 30 minutes”. Moreover, the “duration of pleasant cooling sensations, 0.1% towelette” value in the data set on face (0.1% wt/vol in 10% propylene-glycol/90% water on napkin, face) is “about 10 minute”. The eye irritation entry in the data set with face (0.1 or 0.5% towelette) is given as “No eye irritation”. The “duration of pleasant cooling sensations, 0.5% towelette” value in the data set with face (0.5% wt/vol in 10% propylene-glycol/90% water on napkin, face) was “about 60 minutes”. In the data set on periorbital area (1% in Aquaphor, periorbital), the “duration of alerting effect” value is given as “about one”. Moreover, in the data set with periorbital area (setting [3]), the “duration of coolness on the skin (average)” value came to 30 min and the “onset of coolness on the skin” value was ≤ 1 min. The “irritation of skin and eye surfaces” value with periorbital area (periorbital application) was “No irritation of the eye surfaces”. Moreover, in data set [1], the “duration of coolness on irritated skin (average)” value was 30 min and the “time until discomfort of the irritated skin was abated” value was “five”. For the same compound, the “onset of sensations of coolness on irritated skin” value in data set [1] (one subject) was ≤ 5 min. The “Duration of Skin Cooling” value in the data set on skin above the upper lip (40 mM (1% wt/vol) ointment, skin above upper lip) came to 1.9 h. In addition, in the data set on skin above the upper lip (skin above upper lip), the “Duration of Action On-Off (minutes): On (onset)” value turned out to be 1 min, the “Duration of Action On-Off (minutes): duration (offset minus onset)” value came out at 114 min and the “Duration of Action On-Off (minutes): Off (offset)” value was determined as 115 min. Further, the “refreshing cooling and absence of skin irritation or eye irritation (“perfect cool”)” value in the data set on skin above the upper lip (after facial skin or periorbital applications) is recorded as “D-Ala Me Ester (*)”.

Take `COc1ccc(NC(=O)C2CC(C)CCC2C(C)C)cc1` (stereo not drawn) [WS-12, N-p-methoxyphenyl-p-menthane-carboxamide, reference compound]: the logP (as a rule, the decadic logarithm of the partition coefficient of the neutral form, usually between octanol and water) in [2] was found to be 5.3. Also, in the data set with tongue, the Threshold tongue worked out at 0.2 µg. Besides, the “potency at TRP-M8” value at TRP-M8 is reported as “more potent at TRP-M8 than WS-5; also recorded: potent”. Further, in the data set on skin above the upper lip (skin above upper lip), the “Duration of Action On-Off (minutes): On (onset)” value is 13 min, the “Duration of Action On-Off (minutes): duration (offset minus onset)” value was determined as 25 min and the “Duration of Action On-Off (minutes): Off (offset)” value is 38 min.
